Legend:
[1] = target: Sigma intracellular receptor 2 (Homo sapiens, UniProt Q5BJF2); test: GPCRScan assay: inhibition of Sigma 2; set-up: radioligand conc. used [nm] 5.0, parental cells HEKT
[2] = tested on: Tyrosine-protein kinase ABL1 (Homo sapiens), P00519 [F317L]; conditions: Compound concentration 1000.0 nM
[3] = tested on: Tyrosine-protein kinase ABL1 (Homo sapiens), P00519 [Q252H]; conditions: Compound concentration 1000.0 nM
[4] = target: Activin receptor type-1-like (Homo sapiens) (UniProt P37023); conditions: Compound concentration 1000.0 nM
[5] = target: Atypical kinase COQ8A, mitochondrial (Homo sapiens) (UniProt Q8NI60); conditions: Compound concentration 1000.0 nM
[6] = target: RAC-gamma serine/threonine-protein kinase (Homo sapiens) (UniProt Q9Y243); conditions: Compound concentration 1000.0 nM
[7] = target: Mitogen-activated protein kinase kinase kinase 6 (Homo sapiens) (UniProt O95382); conditions: Compound concentration 1000.0 nM
[8] = target: Protein-tyrosine kinase 6 (Homo sapiens) (UniProt Q13882); conditions: Compound concentration 1000.0 nM
[9] = target: Calcium/calmodulin-dependent protein kinase type 1 (Homo sapiens) (UniProt Q14012); conditions: Compound concentration 1000.0 nM
[10] = target: Cyclin-dependent kinase 8 (Homo sapiens) (UniProt P49336); conditions: Compound concentration 1000.0 nM
[11] = target: Cyclin-dependent kinase-like 1 (Homo sapiens) (UniProt Q00532); conditions: Compound concentration 1000.0 nM
[12] = target: Cyclin-dependent kinase-like 5 (Homo sapiens) (UniProt O76039); conditions: Compound concentration 1000.0 nM
[13] = target: Macrophage colony-stimulating factor 1 receptor (Homo sapiens) (UniProt P07333); conditions: Compound concentration 1000.0 nM
[14] = target: Casein kinase II subunit alpha (Homo sapiens) (UniProt P68400); conditions: Compound concentration 1000.0 nM
[15] = target: Serine/threonine-protein kinase DCLK1 (Homo sapiens) (UniProt O15075); conditions: Compound concentration 1000.0 nM
[16] = tested on: Epidermal growth factor receptor (Homo sapiens), P00533 [L861Q]; conditions: Compound concentration 1000.0 nM
[17] = target: Ephrin type-B receptor 4 (Homo sapiens) (UniProt P54760); conditions: Compound concentration 1000.0 nM
[18] = target: Receptor tyrosine-protein kinase erbB-2 (Homo sapiens) (UniProt P04626); conditions: Compound concentration 1000.0 nM
[19] = target: Receptor-type tyrosine-protein kinase FLT3 (Homo sapiens) (UniProt P36888); conditions: Compound concentration 1000.0 nM
[20] = target: Beta-adrenergic receptor kinase 1 (Homo sapiens) (UniProt P25098); conditions: Compound concentration 1000.0 nM
[21] = target: G protein-coupled receptor kinase 4 (Homo sapiens) (UniProt P32298); conditions: Compound concentration 1000.0 nM
[22] = target: Glycogen synthase kinase-3 beta (Homo sapiens) (UniProt P49841); conditions: Compound concentration 1000.0 nM
[23] = tested on: Mast/stem cell growth factor receptor Kit (Homo sapiens), P10721 [D816V]; conditions: Compound concentration 1000.0 nM
[24] = target: Serine/threonine-protein kinase MARK1 (Homo sapiens) (UniProt Q9P0L2); conditions: Compound concentration 1000.0 nM
[25] = target: Dual specificity mitogen-activated protein kinase kinase 5 (Homo sapiens) (UniProt Q13163); conditions: Compound concentration 1000.0 nM
[26] = target: Serine/threonine-protein kinase OSR1 (Homo sapiens) (UniProt O95747); conditions: Compound concentration 1000.0 nM
[27] = target: Mitogen-activated protein kinase 14 (Homo sapiens) (UniProt Q16539); conditions: Compound concentration 1000.0 nM
[28] = target: Mitogen-activated protein kinase 12 (Homo sapiens) (UniProt P53778); conditions: Compound concentration 1000.0 nM
[29] = target: Phosphorylase b kinase regulatory subunit alpha, liver isoform (Homo sapiens) (UniProt P46019); conditions: Compound concentration 1000.0 nM
[30] = target: Serine/threonine-protein kinase N2 (Homo sapiens) (UniProt Q16513); conditions: Compound concentration 1000.0 nM
[31] = target: Serine/threonine-protein kinase PLK1 (Homo sapiens) (UniProt P53350); conditions: Compound concentration 1000.0 nM
[32] = target: Protein kinase C delta type (Homo sapiens) (UniProt Q05655); conditions: Compound concentration 1000.0 nM
[33] = target: Interferon-induced, double-stranded RNA-activated protein kinase (Homo sapiens) (UniProt P19525); conditions: Compound concentration 1000.0 nM
[34] = target: cAMP-dependent protein kinase catalytic subunit PRKX (Homo sapiens) (UniProt P51817); conditions: Compound concentration 1000.0 nM
[35] = target: Receptor-interacting serine/threonine-protein kinase 2 (Homo sapiens) (UniProt O43353); conditions: Compound concentration 1000.0 nM
[36] = target: Dual serine/threonine and tyrosine protein kinase (Homo sapiens) (UniProt Q6XUX3); conditions: Compound concentration 1000.0 nM
[37] = target: Ribosomal protein S6 kinase alpha-4 (Homo sapiens) (UniProt O75676); conditions: Compound concentration 1000.0 nM
[38] = target: Ribosomal protein S6 kinase alpha-1 (Homo sapiens) (UniProt Q15418); conditions: Compound concentration 1000.0 nM
[39] = target: SRSF protein kinase 3 (Homo sapiens) (UniProt Q9UPE1); conditions: Compound concentration 1000.0 nM
[40] = target: TRAF2 and NCK-interacting protein kinase (Homo sapiens) (UniProt Q9UKE5); conditions: Compound concentration 1000.0 nM
[41] = target: Serine/threonine-protein kinase VRK2 (Homo sapiens) (UniProt Q86Y07); conditions: Compound concentration 1000.0 nM
[42] = target: Serine/threonine-protein kinase WNK1 (Homo sapiens) (UniProt Q9H4A3); conditions: Compound concentration 1000.0 nM
[43] = target: Tyrosine-protein kinase Yes (Homo sapiens) (UniProt P07947); conditions: Compound concentration 1000.0 nM
[44] = target: 5-hydroxytryptamine receptor 1B (Homo sapiens) (UniProt P28222); conditions: Compound concentration 10.0 uM
[45] = target: Alpha-2C adrenergic receptor (Homo sapiens) (UniProt P18825); conditions: Compound concentration 10.0 uM
[46] = target: Beta-2 adrenergic receptor (Homo sapiens) (UniProt P07550); conditions: Compound concentration 10.0 uM

Sequence of SRSF protein kinase 3 (Homo sapiens) (Q9UPE1 whole entry): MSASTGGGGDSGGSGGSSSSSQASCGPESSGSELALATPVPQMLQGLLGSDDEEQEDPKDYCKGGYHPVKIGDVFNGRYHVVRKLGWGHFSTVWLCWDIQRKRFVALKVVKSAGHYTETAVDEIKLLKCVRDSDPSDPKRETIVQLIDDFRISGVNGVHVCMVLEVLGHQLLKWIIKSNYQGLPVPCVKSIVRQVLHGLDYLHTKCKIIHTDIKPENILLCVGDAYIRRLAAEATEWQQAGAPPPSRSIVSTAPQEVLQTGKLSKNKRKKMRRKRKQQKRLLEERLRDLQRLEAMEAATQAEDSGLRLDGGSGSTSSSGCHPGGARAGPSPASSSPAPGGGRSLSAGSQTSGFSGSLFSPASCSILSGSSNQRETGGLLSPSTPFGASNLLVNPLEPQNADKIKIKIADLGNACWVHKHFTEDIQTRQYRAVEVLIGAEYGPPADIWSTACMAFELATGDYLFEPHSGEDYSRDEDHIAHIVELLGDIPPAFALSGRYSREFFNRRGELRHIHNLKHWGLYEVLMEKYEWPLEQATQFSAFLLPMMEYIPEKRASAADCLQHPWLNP
Sequence of 5-hydroxytryptamine receptor 1B (Homo sapiens) (P28222 whole entry): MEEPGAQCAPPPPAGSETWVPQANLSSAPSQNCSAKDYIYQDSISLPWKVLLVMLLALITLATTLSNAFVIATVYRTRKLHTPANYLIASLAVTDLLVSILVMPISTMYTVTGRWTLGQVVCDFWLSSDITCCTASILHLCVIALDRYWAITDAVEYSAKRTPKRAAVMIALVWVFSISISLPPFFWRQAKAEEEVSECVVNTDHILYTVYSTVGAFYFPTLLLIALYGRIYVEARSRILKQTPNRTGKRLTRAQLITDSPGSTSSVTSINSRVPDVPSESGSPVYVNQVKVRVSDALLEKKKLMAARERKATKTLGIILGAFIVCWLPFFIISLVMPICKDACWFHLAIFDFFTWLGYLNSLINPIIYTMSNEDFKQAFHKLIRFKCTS
Sequence of G protein-coupled receptor kinase 4 (Homo sapiens) (P32298 whole entry, looked up): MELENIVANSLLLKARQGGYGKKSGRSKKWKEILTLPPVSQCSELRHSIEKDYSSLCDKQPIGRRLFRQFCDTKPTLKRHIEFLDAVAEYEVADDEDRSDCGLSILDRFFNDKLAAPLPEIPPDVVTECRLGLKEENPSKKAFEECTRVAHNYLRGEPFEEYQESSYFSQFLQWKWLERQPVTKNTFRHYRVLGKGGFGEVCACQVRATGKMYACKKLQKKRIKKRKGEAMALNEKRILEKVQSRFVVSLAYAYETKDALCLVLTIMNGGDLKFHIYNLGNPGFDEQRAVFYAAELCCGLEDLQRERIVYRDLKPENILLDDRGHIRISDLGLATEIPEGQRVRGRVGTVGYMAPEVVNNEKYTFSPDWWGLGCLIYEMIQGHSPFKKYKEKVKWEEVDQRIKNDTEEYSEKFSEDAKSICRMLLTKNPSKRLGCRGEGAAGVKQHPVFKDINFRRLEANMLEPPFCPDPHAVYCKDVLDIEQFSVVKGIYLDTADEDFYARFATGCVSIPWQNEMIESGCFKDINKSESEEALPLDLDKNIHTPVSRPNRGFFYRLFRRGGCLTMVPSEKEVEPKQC
Sequence of Casein kinase II subunit alpha (Homo sapiens) (P68400 whole entry, looked up): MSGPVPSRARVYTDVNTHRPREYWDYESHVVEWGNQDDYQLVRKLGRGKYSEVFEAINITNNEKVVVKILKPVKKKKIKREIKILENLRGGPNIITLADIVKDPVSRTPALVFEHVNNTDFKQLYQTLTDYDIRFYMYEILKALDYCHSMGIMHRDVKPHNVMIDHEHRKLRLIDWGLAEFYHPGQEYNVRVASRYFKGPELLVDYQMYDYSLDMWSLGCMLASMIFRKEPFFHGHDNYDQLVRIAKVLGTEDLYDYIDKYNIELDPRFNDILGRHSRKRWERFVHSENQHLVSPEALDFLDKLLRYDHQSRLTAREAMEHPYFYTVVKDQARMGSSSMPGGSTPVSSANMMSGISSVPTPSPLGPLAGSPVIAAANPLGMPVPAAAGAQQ
Sequence of Cyclin-dependent kinase-like 5 (Homo sapiens) (O76039 whole entry): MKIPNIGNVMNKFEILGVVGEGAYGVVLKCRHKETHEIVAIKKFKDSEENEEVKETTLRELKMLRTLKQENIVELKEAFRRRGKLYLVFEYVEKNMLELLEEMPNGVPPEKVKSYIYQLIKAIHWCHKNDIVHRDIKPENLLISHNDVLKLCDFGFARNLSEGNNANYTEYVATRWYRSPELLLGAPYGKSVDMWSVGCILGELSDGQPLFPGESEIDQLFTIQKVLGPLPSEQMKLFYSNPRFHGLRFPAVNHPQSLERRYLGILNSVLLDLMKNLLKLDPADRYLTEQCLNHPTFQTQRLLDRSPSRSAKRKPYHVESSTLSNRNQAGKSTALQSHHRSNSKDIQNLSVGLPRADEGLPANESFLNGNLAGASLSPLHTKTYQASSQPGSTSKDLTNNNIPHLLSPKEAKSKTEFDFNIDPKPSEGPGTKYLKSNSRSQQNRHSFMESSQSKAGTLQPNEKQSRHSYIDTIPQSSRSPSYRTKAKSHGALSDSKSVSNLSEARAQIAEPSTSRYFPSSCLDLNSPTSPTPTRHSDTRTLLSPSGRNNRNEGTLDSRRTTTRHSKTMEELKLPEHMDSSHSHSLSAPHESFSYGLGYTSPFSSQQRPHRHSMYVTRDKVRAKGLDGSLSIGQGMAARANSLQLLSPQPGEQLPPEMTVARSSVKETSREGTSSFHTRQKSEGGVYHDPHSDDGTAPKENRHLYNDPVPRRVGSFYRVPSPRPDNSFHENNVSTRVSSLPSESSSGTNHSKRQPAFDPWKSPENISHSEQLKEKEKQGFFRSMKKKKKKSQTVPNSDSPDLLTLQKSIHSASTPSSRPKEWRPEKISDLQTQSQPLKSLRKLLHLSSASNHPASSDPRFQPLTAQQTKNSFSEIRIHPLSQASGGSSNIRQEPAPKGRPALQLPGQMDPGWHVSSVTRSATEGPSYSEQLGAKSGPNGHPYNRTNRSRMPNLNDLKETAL
Sequence of Mitogen-activated protein kinase kinase kinase 6 (Homo sapiens) (O95382 whole entry): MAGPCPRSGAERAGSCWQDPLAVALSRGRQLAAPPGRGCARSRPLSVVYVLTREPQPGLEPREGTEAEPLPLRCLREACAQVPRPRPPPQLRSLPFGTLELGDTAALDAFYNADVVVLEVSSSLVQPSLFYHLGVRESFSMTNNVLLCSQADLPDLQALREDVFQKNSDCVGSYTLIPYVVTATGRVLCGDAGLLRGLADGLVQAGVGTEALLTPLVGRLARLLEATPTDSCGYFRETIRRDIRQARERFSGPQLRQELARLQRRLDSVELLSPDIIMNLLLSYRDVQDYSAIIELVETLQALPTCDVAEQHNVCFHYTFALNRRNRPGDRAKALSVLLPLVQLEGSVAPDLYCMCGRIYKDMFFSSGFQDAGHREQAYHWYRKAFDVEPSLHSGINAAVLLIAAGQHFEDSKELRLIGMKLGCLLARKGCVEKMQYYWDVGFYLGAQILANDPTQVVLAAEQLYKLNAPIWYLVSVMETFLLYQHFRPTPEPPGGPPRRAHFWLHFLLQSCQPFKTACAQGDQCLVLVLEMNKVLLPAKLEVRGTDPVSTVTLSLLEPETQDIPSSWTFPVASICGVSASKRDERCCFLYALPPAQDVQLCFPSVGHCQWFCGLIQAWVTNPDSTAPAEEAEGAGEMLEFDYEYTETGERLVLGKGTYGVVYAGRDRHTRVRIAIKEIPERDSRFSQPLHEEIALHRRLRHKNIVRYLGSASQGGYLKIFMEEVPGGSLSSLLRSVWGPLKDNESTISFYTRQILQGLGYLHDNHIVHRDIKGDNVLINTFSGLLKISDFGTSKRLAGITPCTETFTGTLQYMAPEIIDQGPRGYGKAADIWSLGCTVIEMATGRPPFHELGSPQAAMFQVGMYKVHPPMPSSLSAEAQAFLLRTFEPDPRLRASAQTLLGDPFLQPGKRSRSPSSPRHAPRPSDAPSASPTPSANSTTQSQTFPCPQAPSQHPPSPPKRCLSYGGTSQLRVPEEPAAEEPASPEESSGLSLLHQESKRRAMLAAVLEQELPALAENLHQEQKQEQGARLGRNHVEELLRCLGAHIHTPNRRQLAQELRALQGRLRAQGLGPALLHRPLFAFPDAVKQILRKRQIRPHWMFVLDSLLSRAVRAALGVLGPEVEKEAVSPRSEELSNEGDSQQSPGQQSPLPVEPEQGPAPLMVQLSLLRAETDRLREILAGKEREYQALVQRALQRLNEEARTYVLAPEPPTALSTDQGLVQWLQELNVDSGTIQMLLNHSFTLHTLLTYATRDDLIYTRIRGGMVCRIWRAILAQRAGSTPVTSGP
Sequence of Serine/threonine-protein kinase DCLK1 (Homo sapiens) (O15075 whole entry): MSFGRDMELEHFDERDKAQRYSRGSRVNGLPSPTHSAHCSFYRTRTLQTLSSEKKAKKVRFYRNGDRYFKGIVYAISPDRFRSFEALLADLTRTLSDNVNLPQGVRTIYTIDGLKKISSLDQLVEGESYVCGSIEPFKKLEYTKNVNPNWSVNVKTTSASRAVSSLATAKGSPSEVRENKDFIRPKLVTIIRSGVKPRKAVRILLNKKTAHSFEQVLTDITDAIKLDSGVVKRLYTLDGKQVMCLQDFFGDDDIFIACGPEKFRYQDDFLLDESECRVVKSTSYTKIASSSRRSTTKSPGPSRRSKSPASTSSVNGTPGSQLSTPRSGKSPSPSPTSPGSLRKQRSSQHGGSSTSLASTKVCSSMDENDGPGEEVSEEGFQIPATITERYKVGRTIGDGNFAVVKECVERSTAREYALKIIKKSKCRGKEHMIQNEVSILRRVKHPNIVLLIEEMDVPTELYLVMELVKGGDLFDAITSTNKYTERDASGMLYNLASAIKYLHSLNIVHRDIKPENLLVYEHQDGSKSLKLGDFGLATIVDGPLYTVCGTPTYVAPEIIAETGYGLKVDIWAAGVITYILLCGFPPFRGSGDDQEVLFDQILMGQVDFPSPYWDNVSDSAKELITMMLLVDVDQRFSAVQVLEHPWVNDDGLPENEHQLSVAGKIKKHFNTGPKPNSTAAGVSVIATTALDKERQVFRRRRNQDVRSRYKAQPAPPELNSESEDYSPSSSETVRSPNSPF

With `O=C(Nc1cccnn1)N1CCC(=Cc2cccc(Oc3ccc(C(F)(F)F)cn3)c2)CC1` the Ki [1] was 0.437 µM, the residual activity [2] was 100% and the residual activity [3] was 99%. The residual activity [4] was 77%, the residual activity [5] was 78% and the residual activity [6] was 100%. For the same compound, the residual activity [7] was 100%, the residual activity [8] was 100% and the residual activity [9] was 100%. The residual activity [10] was 100%, the residual activity [11] was 86% and the residual activity [12] was 100%. It also gave a residual activity [13] of 95%, a residual activity [14] of 100% and a residual activity [15] of 100%. It also gave a residual activity [16] of 84%, a residual activity [17] of 69% and a residual activity [18] of 72%. It also gave a residual activity [19] of 97%, a residual activity [20] of 100% and a residual activity [21] of 97%. For the same compound, the residual activity [22] was 100%, the residual activity [23] was 87% and the residual activity [24] was 84%. It also gave a residual activity [25] of 100%, a residual activity [26] of 100% and a residual activity [27] of 100%. It also gave a residual activity [28] of 100%, a residual activity [29] of 88% and a residual activity [30] of 100%. It also gave a residual activity [31] of 100%, a residual activity [32] of 93% and a residual activity [33] of 100%. It also gave a residual activity [34] of 87%, a residual activity [35] of 94% and a residual activity [36] of 69%. The residual activity [37] was 100%, the residual activity [38] was 100% and the residual activity [39] was 81%. It also gave a residual activity [40] of 100%, a residual activity [41] of 100% and a residual activity [42] of 100%. For the same compound, the residual activity [43] was 100%, the inhibition [44] was 24.4% and the inhibition [45] was 79.3%. The inhibition [46] was 0.51%.
Compound `O=C(Nc1cccnn1)N1CC(C/C=C/c2cncc(Oc3ccc(C(F)(F)F)cn3)n2)C1` has a Ki [1] of 8.41 µM, a residual activity [2] of 58% and a residual activity [3] of 81%. It also gave a residual activity [4] of 100%, a residual activity [5] of 96% and a residual activity [6] of 100%. It also gave a residual activity [7] of 60%, a residual activity [8] of 91% and a residual activity [9] of 100%. For the same compound, the residual activity [10] was 100%, the residual activity [11] was 100% and the residual activity [12] was 73%. It also gave a residual activity [13] of 100%, a residual activity [14] of 72% and a residual activity [15] of 84%. For the same compound, the residual activity [16] was 100%, the residual activity [17] was 100% and the residual activity [18] was 83%. The residual activity [19] was 86%, the residual activity [20] was 96% and the residual activity [21] was 100%. The residual activity [22] was 77%, the residual activity [23] was 100% and the residual activity [24] was 100%. It also gave a residual activity [25] of 88%, a residual activity [26] of 71% and a residual activity [27] of 100%. The residual activity [28] was 100%, the residual activity [29] was 100% and the residual activity [30] was 100%. For the same compound, the residual activity [31] was 87%, the residual activity [32] was 100% and the residual activity [33] was 100%. For the same compound, the residual activity [34] was 92%, the residual activity [35] was 93% and the residual activity [36] was 65%. It also gave a residual activity [37] of 92%, a residual activity [38] of 92% and a residual activity [39] of 100%. For the same compound, the residual activity [40] was 92%, the residual activity [41] was 97% and the residual activity [42] was 100%. For the same compound, the residual activity [43] was 100%, the inhibition [44] was 4.8% and the inhibition [45] was 0.34%. For the same compound, the inhibition [46] was 16.8%.
